Laboratory results reported in patent publication US11753433B2, “Methods of synthesizing substituted purine compounds” (Epizyme, Inc., priority 2013, dated 2023).

Experiments:
[1] = Solubility in Simulated Gastric Fluid (SGF) at 37° C.; format: physicochemical; conditions: for Resulting Solid: XRPD; for Solubility: calculated using free base content
Description: To study if Form A and Form B would perform differently in stomach, the solubilities of Form A and Form B were measured in Simulated Gastric Fluid (SGF, see below for SGF preparation) at 37° C. […] The remaining solids after each time point were subject to XRPD analysis. […] Weigh appropriate amount of hydrochloride (HCl) and sodium chloride (NaCl) into a 1-L flask followed by addition of 1-L deionized water. The mixture was stirred until all solids are dissolved. Check pH value with a pH-meter and adjust the pH to 1.8 with HCl (1N) or NaOH (1N).

[2] = Dynamic vapor sorption (DVS) hygroscopicity; format: physicochemical; conditions: at 80% RH, 25° C.
Description: (peak temperature) which is accompanied by 5.9 wt % weight loss up to ˜150° C. in the TGA curve (FIG. 3). […] A solid is considered moderately hygroscopic when water uptake at 25° C./80% RH is between 2-15 wt % based on criteria of European Pharmacopeia. […] Form B of EP-1 trihydrate (x is 3) is a trihydrate as confirmed by single crystal analysis. The experimental XRPD pattern of Form B matches well with the simulated one from single crystal data (FIG. 6). This was also confirmed by DSC and TGA data (FIG. 7 and FIG. 8, respectively). DSC data indicates Form B dehydrates at ˜132° C. […] Form B is slightly hygroscopic as evidenced by a weight change of ˜0.3% between 0% and 95% RH (FIG. 9), (data collection was programmed from 95% RH-0% RH-95% RH at a step size of 10% RH at 25° C.).

CC(C)N(CC1O[C@@H](n2cnc3c(N)ncnc32)[C@H](O)[C@@H]1O)C1CC(CCc2nc3cc(C(C)(C)C)ccc3[nH]2)C1 (stereo partly drawn) [Form A, (2R,3R,4S,5R)-2-(6-amino-9H-purin-9-yl)-5-((((1r,3S)-3-(2-(5-(tert-butyl)-1H-benzo[d]imidazol-2-yl)ethyl)cyclobutyl)(isopropyl)amino)methyl)tetrahydrofuran-3,4-diol hydrate]
Final pH [1]: 5.1 | time of conversion of Form A to Form B in SGF [1]: ≤ 15 min | Resulting Solid ([1]; 15 min): Type B | Solubility ([1]; 15 min): 5400 µg/mL | Resulting Solid ([1]; 30 min): Type B | Solubility ([1]; 30 min): 5500 µg/mL | Resulting Solid ([1]; 60 min): Type B | Solubility ([1]; 60 min): 5300 µg/mL | water adsorption measured by dynamic vapor sorption (DVS) [2]: ~5.8 wt %
